Measured values taken from PubChem BioAssay (NCI).
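1) Cells in 96-well plates. 2) Compound, 48 h, 5 concentrations. 3) Linear interpolation between surrounding doses. 4) Unreached endpoint = highest concentration. Here, GI50 denotes the concentration required for 50% inhibition of growth. TGI marks complete inhibition of growth.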

Columns and labels:
Test in all cases: NCI-60 cell line screen, 48 h
[1] = tested on: HT29 colon
[2] = tested on: UACC-62 melanoma
[3] = tested on: KM12 colon
[4] = tested on: A549 NSCLC
[5] = tested on: EKVX NSCLC
[6] = tested on: K-562 leukemia
[7] = tested on: SK-MEL-2 melanoma
[8] = tested on: IGROV1 ovarian
[9] = tested on: RXF 393 renal
[10] = tested on: CCRF-CEM leukemia

| Compound | TGI [1] [µM] | TGI [2] [µM] | TGI [3] [µM] | TGI [4] [µM] | TGI [5] [µM] | TGI [6] [µM] | TGI [7] [µM] | TGI [8] [µM] | TGI [9] [µM] | TGI [10] [µM] | GI50 [1] [µM] | GI50 [2] [µM] | GI50 [3] [µM] | GI50 [4] [µM] | GI50 [5] [µM] | GI50 [6] [µM] | GI50 [7] [µM] | GI50 [8] [µM] | GI50 [9] [µM] | GI50 [10] [µM] |
| --- | --- | --- | --- | --- | --- | --- | --- | --- | --- | --- | --- | --- | --- | --- | --- | --- | --- | --- | --- | --- |
| COc1cc(C=Nc2ccc(C(C)C)cc2)cc(OC)c1OC | > 100 | > 100 | > 100 | > 100 | > 100 | > 86.7 | > 100 | > 100 | > 100 | > 100 |  |  |  |  |  |  |  |  |  |  |
| O=c1ccnc2c1ccc1[nH]cccc12 | > 100 | > 100 | > 100 | > 100 | > 100 | > 100 | > 100 | > 100 | > 100 | > 100 |  |  |  |  |  |  |  |  |  |  |
| CC(=O)/C(=C\C1=CCCO1)C(=O)Nc1ccccc1C | > 100 | > 100 | > 100 | > 100 | > 100 | > 100 | > 100 | > 100 | > 100 | > 100 |  |  |  |  |  |  |  |  |  |  |
| COc1ccc2c(CN3CCC[C@H]3C(=O)O)cc3cc4c(cc3c2c1)OCO4 | 62 | 23.7 | 41.8 | > 100 | 65.7 | > 100 | 29.8 | > 100 | 23.2 | > 100 | 8.46 | 10.9 | 12 | 21.5 | 20.2 | 20.2 | 12.6 | 25.4 | 6.81 | 10.2 |
| CCOc1ccc(Nc2nc(-c3ccc4c(c3)NC(=O)CO4)cs2)cc1 | > 100 | 23.5 | > 100 | > 100 | > 100 | > 100 | 13.8 | > 100 | 62.4 | > 100 | 5.74 | 6.94 | 11.1 | 5.14 | 6.59 | 4.86 | 3.98 | 15.5 | 16.1 | 6.28 |
| CCOC(=O)C1=C(Nc2ccc(Cl)cc2Cl)OC/C1=N\NS(=O)(=O)c1ccc(C)cc1 | > 100 | > 100 | > 100 | > 100 | > 100 | > 100 | > 100 | > 100 | > 100 | > 100 |  |  |  |  |  |  |  |  |  |  |
| O=C1c2cc([N+](=O)[O-])ccc2-c2cccc(F)c21 | > 100 | > 100 | > 100 | > 100 | 51.5 | > 100 | 55.7 | > 100 | > 100 | > 100 |  |  |  |  |  |  |  |  |  |  |
| CC/C(=C(/CC)c1ccc(O)cc1)c1ccc([O-])cc1.CC/C(=C(/CC)c1ccc(O)cc1)c1ccc([O-])cc1.O=C([CH-]C(=O)c1ccccc1)c1ccccc1.O=C([CH-]C(=O)c1ccccc1)c1ccccc1.[Ti+4] | 32 | 25.5 | 35.1 | 32.3 | 46 | > 100 | 25.2 | 37.7 | 25.7 | > 100 | 18.1 | 6.61 | 12.5 | 7.99 | 17.6 | 3.51 | 11.9 | 16.1 | 10.7 | 4.57 |
